The values that follow come from patent publication US20230346717A1, “IDENTIFICATION AND USE OF COMPOUNDS IN THE TREATMENT OR PREVENTION OF SEVERE ACUTE RESPIRATORY SYNDROME CORONAVIRUS 2” (priority 2020, published 2023).

Counter-ions that a name gives are not always drawn.

For test [1] the following is noted: within 14 days of treatment; cited from earlier work.
Another test concerns CTSL. Format: cell-based, human. The note with it: ARPE-19/HPV-16 cells, 10 μM drug, 24 hours.
A further test deals with FYCO1. In kind it is cell-based, human. The note with it: ARPE-19 cells.
For test [2] the following is noted: people with nonalcoholic fatty liver disease; cited from earlier work.
The conditions of test [3]: people with heart failure; cited from earlier work.
The conditions of test [4]: rats; cited from earlier work.
The conditions of test [5]: people with dyslipidemia; cited from earlier work.
The conditions of test [6]: sepsis-induced acute lung injury in rats; cited from earlier work.
The conditions of test [7]: people with diabetes; cited from earlier work.
For test [8] the following is noted: 230 ventilated patients with ALI; cited from earlier work.
For test [9] the following is noted: 492 patients; cited from earlier work.
The conditions of test [10]: 404 ALI patients and 177 controls; cited from earlier work.

Description for CTSL: The retinal pigment epithelia cell line, ARPE-19/HPV-16, was chosen to establish a database of drug profiles because of its non-cancerous, human origin, with a normal karyotype.
Cells were aliquoted on 96-well plates (˜2×10^5 cells/well) and incubated for 24 hours prior to providing fresh media with a drug, or the drug vehicle (water, dimethyl sulfoxide, ethanol, methanol, or phosphate-buffered saline solution). Drugs were diluted 1000-fold in buffered Advanced D-MEM/F-12 culture medium (Invitrogen, Carlsbad, CA) containing nonessential amino acids and 110 mg/L sodium pyruvate.
Cells were harvested 24 hours after treatment and RNA was extracted using the RNeasy 96 protocol (Qiagen, Valencia, CA). Gene expression for 22,238 probe sets of 12,490 genes was generated with U133A2.0 microarrays following the manufacturer's instructions (Affymetrix, Santa Clara, CA). Drugs were profiled in duplicate or triplicate, with multiple vehicle controls on each plate. A total of 708 microarrays were analyzed including 74 for 18 antipsychotics, 499 for 448 other compounds, and 135 for vehicle controls.
The raw scan data were first converted to average difference values using MAS 5.0 (Affymetrix). The average difference values of both treatment and control data were set to a minimum threshold of 50 if below 50. For each treatment instance, all probe sets were then ranked based on their amplitude, or level of expression relative to the vehicle control (or average of controls when more than one was used). Amplitude was defined as the ratio of expression (t−v)/[(t+v)/2] where t corresponds to treatment instance and v to vehicle instance.
Each drug group profile was created using a novel Weighted Influence Model, Rank of Ranks (WIMRR) method which underscores the rank of each probe set across the entire gene expression profile rather than the specific change in expression level. WIMRR takes the average rank of each probe set across all of the members of the group and then re-ranks the probe sets from smallest average rank to largest average rank. A gene-set enrichment metric based on the Kolmogorov-Smirnov (KS) statistic.
Applicant analyzed expression profile of CTSL across all 466 drugs tested. In order to find positive hits and selected only those results that caused decrease of CTSL expression by at least 33% (1.5-fold down).

As for `CC(C)c1c(C(=O)Nc2ccccc2)c(-c2ccccc2)c(-c2ccc(F)cc2)n1CC[C@@H](O)C[C@@H](O)CC(=O)O` [Atorvastatin], the “decrease of the level of CoQ10” value in test [1] is 49%.

Consider `CN1[C@@H]2CC[C@H]1C[C@@H](OC(=O)C(CO)c1ccccc1)C2` (some centres unmarked) [Atropine Sulfate], for which, in the test with CTSL, the “log2(treated) CTSL” value is 9.63 log2 and the “log2 difference (CTSL, treated vs control)” value (shortened to “log2 difference”) is −0.70 log2.

For the molecule `NCC(CC(=O)O)c1ccc(Cl)cc1` (centres unmarked) [Baclofen], in the test on CTSL, the “log2(treated) CTSL” value amounted to 9.58 log2 and the “log2 difference” value is given as −0.82 log2. Also, in the test with FYCO1, the “FYCO1 expression, Difference (treated vs control)” value (shortened to “FYCO1 expression, Difference”) is reported as −1.2190 and the “FYCO1 expression, Treated” value amounted to 6.7222.

In the case of `CN(C)CCC(c1ccc(Br)cc1)c1ccccn1` (centres unmarked) [Brompheniramine Maleate], in the test with CTSL, the “log2(treated) CTSL” value came out at 9.57 log2 and the “log2 difference” value was −0.75 log2.

In the case of `COC1=C(OC)C(=O)C(C/C=C(\C)CC/C=C(\C)CC/C=C(\C)CC/C=C(\C)CC/C=C(\C)CC/C=C(\C)CC/C=C(\C)CC/C=C(\C)CC/C=C(\C)CCC=C(C)C)=C(C)C1=O` [CoQ10, Coenzyme Q10], the “liver and systemic markers of inflammation” value in test [2] is recorded as “improves”. Besides, the “mortality and cardiac markers” value in test [3] is “improves”. The “fibrosis in the lung and liver” value in test [4] is listed as “beneficial in attenuating fibrosis”. Also, the endothelial dysfunction result in test [5] is listed as “improve”. Besides, in test [6], the pulmonary edema entry is recorded as “improved” and the survival result is on record as “improved”. Besides, the “total cholesterol and low-density lipoprotein levels” value in test [7] is on record as “improve”.

Regarding `O=C1NC(=O)C(c2ccccc2)(c2ccccc2)N1` [Phenytoin], in the test on CTSL, the “log2(treated) CTSL” value was determined as 9.56 log2 and the “log2 difference” value is on record as −0.70 log2.

Take `Cc1ccc(/C(=C\CN2CCCC2)c2ccccn2)cc1` [Triprolidine Hydrochloride]: in the test on CTSL, the “log2(treated) CTSL” value was 9.54 log2 and the “log2 difference” value is listed as −0.79 log2. Besides, in the test on FYCO1, the “FYCO1 expression, Difference” value is reported as −1.4935 and the “FYCO1 expression, Treated” value is 6.4963.

Consider `COc1ccc2c(c1)c(CC(=O)O)c(C)n2C(=O)c1ccc(Cl)cc1` [indomethacin], for which, in the test on FYCO1, the “FYCO1 expression, Difference” value is listed as −1.539 and the “FYCO1 expression, Treated” value is on record as 4.949.

Take `CCC1(c2ccccc2)C(=O)NCNC1=O` [primidone]: in the test with FYCO1, the “FYCO1 expression, Difference” value was −1.4959 and the “FYCO1 expression, Treated” value was found to be 6.4453.

In the case of `CC(C)(C)C(=O)Oc1ccc(S(=O)(=O)Nc2ccccc2C(=O)NCC(=O)O)cc1` [sivelestat], in test [8], the 30-day survival rate entry was “no significant effect”, the ICU stay entry is recorded as “shortened” and the “duration of mechanical ventilation” value was “reduced”. Further, in test [9], the 28-day all-cause mortality result was “no effect” and the ventilator free days result is given as “no effect”. Further, the “number of ventilator free days” value in [10] was “significantly improved”.
